This note sets out measurements from PMC10094136, “Neurog1-Derived Peptides RMNE1 and DualPep-Shine Penetrate the Skin and Inhibit Melanin Synthesis by Regulating MITF Transcription” (International Journal of Molecular Sciences, 2023).

Where a SMILES comes first, the peptide text is derived from it.

Series [1] relates to B16F10 cells. The series can be described thus: Localization of penetrated peptide by confocal microscopy. The format is cell-based. The conditions noted are these: B16F10, FITC-conjugated peptide, 2 h, Hoechst 33342 nucleus staining. The procedure:
Figure 3 DualPep-Shine regulates the expression of melanogenic genes and inhibits the promoter activity of MITF-M. (A) B16F10 cells were treated with various concentrations of DualPep-Shine for 72 h. Melanin contents were determined at OD 405 nm. (B) DualPep-Shine was treated with α-MSH for 24 h, and whole-cell lysates were subjected to Western blotting. Indicated antibodies were used to analyze melanogenic proteins. (C) mRNA levels of MITF, Tyr, TRP1, and TRP2 were analyzed using quantitative polymerase chain reaction (qPCR) after treatment with DualPep-Shine for 12 h. The gene expression was normalized with β-actin. (D) FITC-conjugated DualPep-Shine was treated for 2 h on B16F10 cells, and its localization was visualized using confocal microscopy. Hoechst 33342 was used for nucleus staining. Bar = 10 μm. […] The results are presented as mean ± SD, and statistical significance was analyzed with Student’s t-test (** p < 0.01, *** p < 0.001).
B16F10 cells were seeded in a 24-well plate and treated with 2.5 μM of FITC conjugated TAT, RMNE1, or DualPep-Shine for 2 h. […] Penetrated peptides were evaluated via flow cytometry by measuring FITC levels. […] The cells were washed again with PBS five times, mounted on a slide glass using gel/mount solution (Biomeda, Foster City, CA, USA), and the penetrated peptides were visualized using a fluorescence microscope. […]

The test system of another series is HaCaT cells. Nature of the series: Cell viability CCK-8 assay, HaCaT. The format is cell-based. Particulars: up to highest concentration, 72 h (legend; method says 24 h), CCK8. The protocol: (§1) (A) B16F10 and HaCaT cells were treated with the indicated concentration of DualPep-Shine for 72 h, and relative cell viability was measured using Cell Counting Kit 8 (CCK8) assay. Doxorubicin was used for positive control. (B) Phorbol 12-myristate 13-acetate (PMA)-differentiated THP-1 cells were treated with different concentrations of DualPep-Shine for 24 h. TNF-α from supernatants was measured using the enzyme-linked immunosorbent assay (ELISA). (C) DualPep-Shine was incubated with indicated temperature conditions for 45 days. B16F10 cells were treated with different concentrations for 72 h, and melanin contents were measured at OD 405 nm. The results are presented as mean ± SD, and statistical significance was analyzed with Student’s t-test (NS: not significant, *** p < 0.001).
(§2) Cell viability was measured using a CCK-8 assay (Dojindo, Tokyo, Japan). HaCaT and B16F10 cells were cultured in a 96-well plate at a 6 × 10^3 cells/well and incubated in a complete medium at 37 °C with 5% CO2 overnight. Each cell type was treated with different concentrations of peptides for 24 h. After removing the medium, CCK-8 solution was added in a dark room at 37 °C. Absorbance was measured at 450 nm using a microplate reader.
A general note: Tetrazolium assays rely on reduction of a dye to a coloured formazan, in cell work by metabolically active cells.

The test system of series [2] is B16F10 cells. The series can be described thus: Cell viability CCK-8 assay, B16F10. It counts as cell-based. The conditions noted are these: B16F10, up to highest concentration, 72 h (legend; method says 24 h), CCK8. The procedure: as §1, §2
The test system of another series is THP-1 cells. The series can be described thus: TNF-α secretion ELISA in PMA-differentiated THP-1 cells (immunogenicity). The conditions noted are these: PMA-differentiated THP-1, up to 100 μM, 24 h. It counts as cell-based. The procedure: as §1
(In general: An ELISA detects its analyte on a solid surface through an enzyme-linked reagent.)

Series [3] in a line: Storage stability of peptide, read out as anti-melanin activity in B16F10 cells. It counts as physicochemical. Particulars: peptide stored at −20 °C, 25 °C and 37 °C for 45 days; then B16F10 72 h, melanin at OD 405 nm. The procedure:
as §1
B16F10 cells (1 × 10^5) were seeded in a 24-well plate and incubated for 16 h. The cells were treated with α-MSH (Sigma-Aldrich, Darmstadt, Germany) and peptides for 72 h. The cells were incubated at 37 °C in 5% CO2. […] Then, melanin levels were determined by measuring the absorbance at 405 nm using a microplate reader. […] B16F10 cells were then treated with different concentrations of peptides, and melanin contents were measured to check the stability of DualPep-Shine.

Consider `C[C@@H](O)[C@H](NC(=O)[C@H](CCCNC(=N)N)NC(=O)CNC(=O)[C@H](CCCNC(=N)N)NC(=O)[C@H](CCCNC(=N)N)NC(=O)[C@H](CCCNC(=N)N)NC(=O)[C@H](CCCNC(=N)N)NC(=O)[C@H](CCCNC(=N)N)NC(=O)[C@H](CCC(=O)O)NC(=O)[C@H](CCC(N)=O)NC(=O)[C@H](CCC(=O)O)NC(=O)[C@@H](N)CC(=O)O)C(=O)N[C@@H](CCCNC(=N)N)C(=O)O` [DualPep-Shine] (H-DEQERRRRRGRTR-OH), for which, in the series with B16F10 cells [1], the Intracellular localization result was “mainly localized in the nucleus”. Moreover, the Cell viability result with HaCaT cells and in the series with B16F10 cells [2] was “not affected” throughout. The “TNF-α secretion (immunogenicity)” value with THP-1 cells is reported as “did not induce tumor necrosis factor α (TNF-α) secretion”. For the same compound, the “Anti-pigmentation activity after pre-incubation (stability)” value in series [3] was “maintained”.
